Where two headings read alike, the source gives them in different places. One block for each compound: values may come before it.
Key:
[1] = Solubilities at 25° C. of perfluoro-1-azabicyclo(5,3,0)decane in solvents; assay type: physicochemical
Source text: Solubility of perfluoro-1-
azabicyclo(5,3,0)decane in […]

[2] = Emulsion forming capacity with Pluronic F68, standing overnight; assay type: physicochemical; settings: for Emulsification time to form emulsion: Pluronic F68 in deionised water, high speed mixer; for Separation (creaming) of the emulsion: standing at room temperature overnight, Pluronic F68
Procedure: To 10 ml. of perfluoro-1-azabicyclo(5,3,0)decane (ABCD) was added 10 ml. of solution made by dissolving 8.0 g of a non-ionic, polyoxyethylene-polyoxypropylene surfactant ('Pluronic F68', RTM) in 220 ml. of deionised water. The mixture was emulsified for a few minutes using a high speed mixer to form an emulsion having the appearance of diluted milk.
In a comparison test, an emulsion was formed using perfluorodecalin. An emulsion of similar appearance to that formed with ABCD required about 10 minutes emulsification.

[3] = Oxygen solubility in fluorocarbon; assay type: physicochemical; settings: oxygen-saturated at 20° C.; corrected for vapour pressure of fluorocarbon
Procedure: A portion of 20 ml. of ABCD was degassed by boiling and cooled to 20° C. while being bubbled with oxygen gas. The oxygen-saturated liquid was then degassed under vacuum and the gas evolved was collected and its volume measured at a known temperature and pressure. After allowing for the vapour pressure of the fluorocarbon, the solubility of oxygen was calculated to be in the range 45±10 mls of O2 (at 760 mm Hg & 0° C.) per 100 ml. of fluorocarbon. The solubility of oxygen in ABCD is thus adequate to permit the use of this fluorocarbon as an oxygen carrier for medical use.

[4] = Toxicity: weight gain of rats administered emulsion; assay type: in vivo; settings: Wistar strain male rats, ABCD emulsion, 4 g/kg as ABCD
Procedure: (§1) ABCD was evaluated as candidate for an artificial blood substitute from the aspects of toxicity, feasibility of emulsification and excretion rate from the organs.

[5] = Stability of emulsion with yolk phospholipids; assay type: physicochemical; settings: heating at 100° C. for 30 minutes and storage at 4° C. and 25° C. for 2 weeks
Procedure: In order to evaluate the feasibility of emulsification, ABCD was emulsified with yolk phospholipids by using a Manton-Gaulin homogenizer and the stability to heating at 100° C. for 30 minutes and storage at 4° C. and 25° C. for 2 weeks were examined.

[6] = Excretion rate from the organs; assay type: in vivo, rats
Procedure: as §1

[7] = Retention in body organs with time (gas chromatography); assay type: in vivo, rats; settings: rat, 0.32 mL/100 g, 0.32 ml. fluorocarbon per 100 gm body weight; for concentration at 120 h: 5 Days; for concentration at 168 h: 7 Days (Av. of 2); for concentration at 240 h: 10 Days; for concentration at 504 h: 21 Days
Procedure: 4. RETENTION OF PERFLUORO-1-AZABICYCLO(5,3,0)DECANE BODY ORGANS WITH TIME
Gas chromatography results--rats injected with emulsion of ABCD (0.32 ml. fluorocarbon per 100 gm body weight). The following residual fluorocarbon concentrations were observed. (In mg. fluorocarbon/gm tissue).

[8] = Base stability of fluorination product; assay type: physicochemical
[9] = aqueous media; cited from earlier work
[10] = in vivo; cited from earlier work
[11] = heart, read-out: Residual fluorocarbon concentration, heart
[12] = kidney, read-out: Residual fluorocarbon concentration, kidney
[13] = liver, read-out: Residual fluorocarbon concentration, liver
[14] = lung, read-out: Residual fluorocarbon concentration, lung
[15] = spleen, read-out: Residual fluorocarbon concentration, spleen

SMILES: FC1(F)N2C(F)(F)C(F)(F)C(F)(F)C2(F)C(F)(F)C(F)(F)C(F)(F)C1(F)F (stereo not shown) [ABCD, perfluoro-1-azabicyclo(5,3,0)decane]
Solubility in acetone ([1]; acetone): 6.84 g in 100 g solvent
Solubility in hexane ([1]; hexane): miscible
Solubility in methanol ([1]; methanol): 1.36 g in 100 g solvent
Solubility in trichloro-trifluoroethane ([1]; trichloro-trifluoroethane): miscible
Solubility in water ([1]; water): hardly soluble
Emulsification time to form emulsion [2]: a few minutes
Separation (creaming) of the emulsion [2]: minor amount of separation ('creaming')
Solubility of oxygen [3]: 45±10 mls of O2 (at 760 mm Hg & 0° C.) per 100 ml. of fluorocarbon
Weight gain [4]: gained weight favourably
Stability of emulsion [5]: acceptably stable
Amount detected in all organs ([6]; 2 weeks after injection): only trace amounts
Elimination from the organs ([6]; after injection): very rapidly eliminated from the organs
concentration at 120 h [7, 11]: 130000 ng/g
concentration at 120 h [7, 12]: 170000 ng/g
concentration at 120 h [7, 13]: 1.18e+07 ng/g
concentration at 120 h [7, 14]: 560000 ng/g
concentration at 120 h [7, 15]: 4.35e+07 ng/g
concentration at 168 h [7, 11]: 450000 ng/g
concentration at 168 h [7, 12]: 100000 ng/g
concentration at 168 h [7, 13]: 6.73e+06 ng/g
concentration at 168 h [7, 14]: 100000 ng/g
concentration at 168 h [7, 15]: 2.23e+07 ng/g
concentration at 240 h [7, 11]: 260000 ng/g
concentration at 240 h [7, 12]: 190000 ng/g
concentration at 240 h [7, 13]: 2.51e+06 ng/g
concentration at 240 h [7, 14]: 160000 ng/g
concentration at 240 h [7, 15]: 1.2e+08 ng/g
concentration at 336 h ([7]; 14 Days (* not Av. of 2), spleen, read-out: Residual fluorocarbon concentration, spleen): 3.69e+06 ng/g
concentration at 336 h ([7]; 14 Days (Av. of 2), heart, read-out: Residual fluorocarbon concentration, heart): 180000 ng/g
concentration at 336 h ([7]; 14 Days (Av. of 2), kidney, read-out: Residual fluorocarbon concentration, kidney): 150000 ng/g
concentration at 336 h ([7]; 14 Days (Av. of 2), liver, read-out: Residual fluorocarbon concentration, liver): 380000 ng/g
concentration at 336 h ([7]; 14 Days (Av. of 2), lung, read-out: Residual fluorocarbon concentration, lung): 150000 ng/g
concentration at 504 h [7, 11]: 160000 ng/g
concentration at 504 h [7, 12]: 160000 ng/g
concentration at 504 h [7, 13]: 40000 ng/g
concentration at 504 h [7, 14]: 150000 ng/g
concentration at 504 h [7, 15]: 1.12e+06 ng/g

SMILES: FC(F)(F)C1(F)N2C(F)(F)C(F)(F)C(F)(F)C2(F)C(F)(F)C(F)(F)C(F)(F)C1(F)F (stereo not shown) [perfluoro-1-aza-2-methyl(5,3,0)decane]
Stability to base [8]: base-stable

Emulsification time to form emulsion [2]: about 10 minutes
Separation (creaming) of the emulsion [2]: pronounced creaming
SMILES: FC1(F)C(F)(F)C(F)(F)C2(F)C(F)(F)C(F)(F)C(F)(F)C(F)(F)C2(F)C1(F)F (stereo not shown) [perfluorodecalin, reference compound]
Emulsion stability [9]: does not easily give a stable emulsion in aqueous media

SMILES: FC(F)(F)C(F)(F)C(F)(F)N(C(F)(F)C(F)(F)C(F)(F)F)C(F)(F)C(F)(F)C(F)(F)F [perfluorotripropylamine]
Emulsion stability [9]: gives a more stable emulsion than perfluorodecalin
Retention time in the body [10]: longer retention time in the body

Reference: patent US4562183A, “Perfluoro-1-azabicyclo(5,3,0)decane compounds useful as blood substitutes” (I.S.C. Chemicals Limited, priority 1982, dated 1985)
